Source: US9803021B2 (The Regents of the University of California, priority 2012, dated 2017)
“Also recorded” adds a separate entry of the source.

Tests used:
ANBL-6 [1] = test: Apoptosis assay (Annexin V / PI flow cytometry); type: cell-based, human
Method: (§1) Cells were analyzed by flow cytometry using FlowJo software.
(§2) Cells were stained with Alexa Fluor 488-labeled Annexin V and propidium iodide (PI) using the Vybrant Apoptosis Kit #2 (Molecular Probes) as per manufacturer's instructions and analyzed by flow cytometry.

NCI-H929 [2] = test: Apoptosis assay (Annexin V / PI flow cytometry); type: cell-based, human
Method: as §1, §2

OCI-My5 [3] = test: Apoptosis assay (Annexin V / PI flow cytometry); type: cell-based, human; details: 3 days; for induction of apoptosis, result in words: OCI-My5, 500 pM (also 1 nM)
Method: as §1, §2

U266 [4] = test: Apoptosis assay (Annexin V / PI flow cytometry); type: cell-based, human
Method: as §1, §2

MM1-144 [5] = test: Apoptosis assay (Annexin V / PI flow cytometry); type: cell-based, human
Method: as §1, §2

8226/S [6] = test: Apoptosis assay (Annexin V / PI flow cytometry); type: cell-based, human
Method: as §1, §2

[7] = tested on: primary myeloma cells from patients; test: Treatment of primary myeloma cells from patients (trypan blue / MTT); type: cell-based, human
Method: Trypan blue and MTT assays were used to determine the number of viable cells. The percentage of viable recovered cells was calculated based upon the number of viable cells recovered from DMSO-treated control cells, which was arbitrarily designated as 100%.
Percent viable cell recovery was determined by trypan blue staining, with untreated control cells designated as 100%.

U266 tumors = test: U266 xenograft model in NSG mice; details: U266 s.c.
Method: For U266 tumors, NOD scid IL-2 receptor gamma chain knock out (NSG) mice were injected subcutaneously with 1×10^7 U226 cells and treated on days 14, 16 and 18 with 100 μg of the indicated proteins. […] Survival was monitored as well as the size of the tumors.
For U266 tumors, experiments were carried out as described above except that NOD-scid IL2rγ^null (NSG) mice were used.

OCI-My 5 tumors = test: OCI-My5 xenograft model in SCID mice; type: in vivo, mouse; details: OCI-My5 s.c.
Source text: Eight mice were included in each group.
Each group consisted of eight mice.

NCI-H929 [8] = test: Cell cycle analysis (PI DNA content, flow cytometry); type: cell-based, human; details: NCI-H929, 500 pM, 4 days
Method: (§3) Cells were incubated with 1 ml of hypotonic DNA staining buffer (1 mg/ml sodium citrate, 100 μg/ml PI, 20 μg/ml RNase A, and 0.3% Triton X-100 in dH2O) for 30-60 min at 4° C. in the dark. Cells were analyzed by flow cytometry and cell cycle analysis performed using FlowJo software with the Watson Model.
(§4) Cells were incubated with 1 ml of hypotonic DNA staining buffer (1 mg/ml sodium citrate, 100 μg/ml PI, 20 μg/ml RNase A, and 0.3% Triton X-100) for 30-60 minutes at 4° C. in the dark. Cells were analyzed by flow cytometry and cell cycle analysis performed using FlowJo software with the Watson Model.

MM1-144 [9] = test: as above; type: cell-based, human; details: MM1-144, 500 pM, 4 days
Method: as §3, §4

ANBL-6 [10] = test: MTS assay (cell viability / metabolic activity); type: cell-based, human; details: ANBL-6, 3 days or 7 days
Method: (§5) Percent cell viability was determined using MTS solution (Promega, Madison, Wis.) by measuring absorbance at 490 nm using a Synergy HT Multi-Detection Microplate Reader (BioTek Instruments, Inc., Winooski, Vt.) with untreated cells being 100%. GraphPad Prism (GraphPad Software Inc., La Jolla, Calif.) was used to analyze data by non-linear regression with the log (inhibitor) vs. the response with a variable slope with the IC50 calculated. Data are expressed as a percentage of maximum metabolic activity. The experiments were performed in triplicate.
as §5, with “Metabolic activity” for “Percent cell viability”, “(Promega)” for “(Promega, Madison, Wis.)”, “Instruments Inc.)” for “Instruments, Inc., Winooski, Vt.)”, “Inc.)” for “Inc., La Jolla, Calif.)”, “versus” for “vs.”, “slope.” for “slope with the IC50 calculated.”

OCI-My5 [11] = test: MTS assay (cell viability / metabolic activity); type: cell-based, human; details: OCI-My5, 3 days
Method: as §5
as §5, with “Metabolic activity” for “Percent cell viability”, “(Promega)” for “(Promega, Madison, Wis.)”, “Instruments Inc.)” for “Instruments, Inc., Winooski, Vt.)”, “Inc.)” for “Inc., La Jolla, Calif.)”, “versus” for “vs.”, “slope.” for “slope with the IC50 calculated.”

U266 [12] = test: MTS assay (cell viability / metabolic activity); type: cell-based, human; details: U266, 3 days
Method: as §5
as §5, with “Metabolic activity” for “Percent cell viability”, “(Promega)” for “(Promega, Madison, Wis.)”, “Instruments Inc.)” for “Instruments, Inc., Winooski, Vt.)”, “Inc.)” for “Inc., La Jolla, Calif.)”, “versus” for “vs.”, “slope.” for “slope with the IC50 calculated.”

MM1-144 [13] = test: MTS assay (cell viability / metabolic activity); type: cell-based, human; details: MM144 (MM1-144), 3 days
Method: as §5
as §5, with “Metabolic activity” for “Percent cell viability”, “(Promega)” for “(Promega, Madison, Wis.)”, “Instruments Inc.)” for “Instruments, Inc., Winooski, Vt.)”, “Inc.)” for “Inc., La Jolla, Calif.)”, “versus” for “vs.”, “slope.” for “slope with the IC50 calculated.”

8226/S [14] = test: MTS assay (cell viability / metabolic activity); type: cell-based, human; details: 8226/S (RPMI 8226), 3 days or 4 days
Method: as §5
as §5, with “Metabolic activity” for “Percent cell viability”, “(Promega)” for “(Promega, Madison, Wis.)”, “Instruments Inc.)” for “Instruments, Inc., Winooski, Vt.)”, “Inc.)” for “Inc., La Jolla, Calif.)”, “versus” for “vs.”, “slope.” for “slope with the IC50 calculated.”

OCI-My 5 cells = test: Cell proliferation assay (3[H]-thymidine incorporation); type: cell-based, human; details: OCI-My 5, 0.3 pM-25 nM, 3 days
Method: The proliferative status of the cells was determined by measuring ^3[H]-thymidine incorporation.

NCI-H929 [15] = test: Ki-67 stain (flow cytometry); type: cell-based, human; details: NCI-H929, 500 pM, 3 days
Method: (§6) Senescence induced β-galactosidase (β-gal) activity was detected as described previously (Debacq-Chainiaux et al. (2009) Nat. Protoc., 4: 1798-1806) and in Supplemental methods. To detect Ki-67 protein, cells were stained and analyzed by flow cytometry as described in Supplemental methods.
(§7) After treatment, cells were fixed with methanol on ice and then incubated with anti-Ki-67 rabbit IgG (Abcam). Cells were then stained with anti-rabbit IgG-FITC (Sigma) and analyzed by flow cytometry.

MM1-144 [16] = test: Ki-67 stain (flow cytometry); type: cell-based, human; details: MM1-144, 500 pM, 3 days
Method: as §6, §7

Daudi cells = test: MTS cell viability assay; type: cell-based, human; details: 72 h / 3 day incubation
Method: as §5
as §5, with “Metabolic activity” for “Percent cell viability”, “(Promega)” for “(Promega, Madison, Wis.)”, “Instruments Inc.)” for “Instruments, Inc., Winooski, Vt.)”, “Inc.)” for “Inc., La Jolla, Calif.)”, “versus” for “vs.”, “slope.” for “slope with the IC50 calculated.”

anti-CD138-IFNα: Fusion protein: murine B-B4 anti-CD138 variable regions, human IgG1κ constant regions, human IFNα2 fused to the antibody C-terminus via SGGGGS linker
Mode of Action of anti-CD138-IFNα fusion (ANBL-6 [1]; ANBL-6): Apoptosis
induction of apoptosis at low concentration, result in words (ANBL-6 [1]; ANBL-6, 1 pM, 3 days): did not cause apoptosis
induction of apoptosis, result in words (ANBL-6 [1]; ANBL-6, 500 pM, 3 days, listed as anti-CD138-IFNα2): caused apoptosis
Mode of Action of anti-CD138-IFNα fusion (NCI-H929 [2]; H929): Apoptosis
induction of apoptosis, result in words (NCI-H929 [2]; H929 (NCI-H929), 500 pM, 3 days, listed as anti-CD138-IFNα2): caused apoptosis
induction of apoptosis at low concentration, result in words (NCI-H929 [2]; NCI-H929, 1 pM, 3 days): did not cause apoptosis
induction of apoptosis at low concentration, result in words (OCI-My5 [3]; OCI-My5, 5 pM): able to induce apoptosis
induction of apoptosis, result in words (OCI-My5 [3]): did not induce apoptosis; also recorded: did not cause apoptosis or blocks to cell cycle progression
induction of apoptosis, result in words (OCI-My5 [3]; listed as anti-CD138-IFNα2): caused apoptosis
Mode of Action of anti-CD138-IFNα fusion (U266 [4]; U266): Apoptosis
induction of apoptosis at low concentration, result in words (U266 [4]; U266, 1 pM, 3 days): able to induce apoptosis
induction of apoptosis, result in words (U266 [4]; U266, 500 pM, 3 days, listed as anti-CD138-IFNα2): caused apoptosis
induction of apoptosis at low concentration, result in words (MM1-144 [5]; MM1-144, 1 pM, 3 days): did not cause apoptosis
Mode of Action of anti-CD138-IFNα fusion (MM1-144 [5]; MM144): Apoptosis
induction of apoptosis, result in words (MM1-144 [5]; MM144 (MM1-144), 500 pM, 3 days): caused apoptosis
Mode of Action of anti-CD138-IFNα fusion (8226/S [6]): Apoptosis
viability of primary myeloma cells, result in words ([7]; 25 nM, 72 h): little effect
viability of primary myeloma cells, result in words ([7]; 100 nM, 72 hours): significantly reduce cell viability
survival / protection against tumor growth, result in words (U266 tumors; 100 μg on days 14, 16, 18): much more effective than untargeted anti-DNS-IFNα
survival / protection against tumor growth, result in words (U266 tumors; 100 μg on days 14, 16, 18, listed as anti-CD138-IFNα2): highest levels of protection
survival / protection, result in words (OCI-My 5 tumors; 100 μg i.v. on days 14, 16, 18): significant increase in survival
survival / protection, result in words (OCI-My 5 tumors; 100 μg i.v. on days 14, 16, 18, listed as anti-CD138-IFNα2): greater protection
% G1 (NCI-H929 [8]): 41.9%
% G2/M (NCI-H929 [8]): 24.3%
% S (NCI-H929 [8]): 21.0%
>G2 (NCI-H929 [8]): 8.2%
Sub G0/G1 (NCI-H929 [8]): 18.9%
% G1 (MM1-144 [9]): 22.6%
% G2/M (MM1-144 [9]): 34.3%
% S (MM1-144 [9]): 29.9%
>G2 (MM1-144 [9]): 11.2%
Sub G0/G1 (MM1-144 [9]): 11.3%
cell viability / growth inhibition (MTS assay), result in words (ANBL-6 [10]): more effective than untargeted anti-CD20-IFNα; also recorded: more effective at decreasing cell viability than IFNα alone
cell viability / growth inhibition (MTS assay), result in words (ANBL-6 [10]; listed as Anti-CD138-IFNα): more effective than anti-CD138-mutIFNα
cell viability / growth inhibition (MTS assay), result in words (ANBL-6 [10]; listed as Anti-CD138-IFNα2): more effective than recombinant IFNα2
cell viability / growth inhibition (MTS assay), result in words (OCI-My5 [11]): more effective than untargeted anti-CD20-IFNα; also recorded: more effective at decreasing cell viability than IFNα alone
cell viability / growth inhibition (MTS assay), result in words (OCI-My5 [11]; listed as Anti-CD138-IFNα2): more effective than recombinant IFNα2
cell viability / growth inhibition (MTS assay), result in words (U266 [12]): more effective than untargeted anti-CD20-IFNα; also recorded: more effective at decreasing cell viability than IFNα alone
cell viability / growth inhibition (MTS assay), result in words (MM1-144 [13]): more effective than untargeted anti-CD20-IFNα; also recorded: more effective at decreasing cell viability than IFNα alone
cell viability / growth inhibition (MTS assay), result in words (MM1-144 [13]; listed as Anti-CD138-IFNα2): more effective than recombinant IFNα2
cell viability / growth inhibition (MTS assay), result in words (8226/S [14]): intermediate effect; also recorded: more effective at decreasing cell viability than IFNα alone
cell viability / growth inhibition (MTS assay), result in words (8226/S [14]; listed as Anti-CD138-IFNα2): some effect was observed only at high concentrations
proliferation (3[H]-thymidine incorporation), result in words (OCI-My 5 cells): greater effect than IFNα alone
Ki-67 negative (non-dividing) cells, result in words (NCI-H929 [15]): more Ki-6T cells as compared to untreated control
Ki-67 negative (non-dividing) cells, result in words (MM1-144 [16]): more Ki-6T cells as compared to untreated control
cell viability (MTS assay), result in words (Daudi cells): just as effective as recombinant IFNα
